In US20240391875A1, “ISOQUINOLINONES AND QUINOLINONES AS MODULATORS OF POLRMT” (Pretzel Therapeutics, Inc., priority 2021, published 2024):

The molecules below were run against POLRMT (Homo sapiens, UniProt O00411) (assay: homogeneous TR-FRET assay of mitochondrial transcription (inhibition of POLRMT)). Conditions: isoquinolinone compounds (Table 1).
Assay type: biochemical
Experimental: The inhibitory activity of the compounds of the present invention against POLRMT were determined by assays based on Bergbrede, T., et al., “An adaptable high-throughput technology enabling the identification of specific transcription modulators,” SLAC Discov., 22, 378-386 (2017).
The ability of some compounds of the present invention to inhibit POLRMT were determined in a homogeneous TR-FRET Assay using high-throughput screening in a 384-well plate format. This method is used to monitor the activity of mitochondrial transcription through measurement of its product, a 407 bp long RNA transcript. Detection of the product is facilitated by hybridization of two DNA-oligonucleotide probes to specific and adjacent sequences within the RNA product sequence. Upon annealing of the probes, two fluorophores are coupled directly to an acceptor nucleotide probe (ATTO647, 5′), or introduced via a coupled streptavidin with a biotinylated donor nucleotide probe (Europium cryptate) that is brought into sufficient proximity to serve as a fluorescence-donor-acceptor pair. Thus, a FRET signal at 665 nm is generated upon excitation at 340 nm.
Proteins used as transcription factors (POLRMT: NP_005026.3, TFAM: NP_003192.1, TFB2M: NP_071761.1) are diluted from their stocks to working concentrations of 1 μM, 20 μM and 4 μM respectively, in a dilution buffer containing 20 mM Tris-HCl (pH 8.0), 200 mM NaCl, 10% (v/v) glycerol, 1 mM Dithiothreitol (DTT), 0.5 mM EDTA.
DNA template is a pUC18 plasmid with the mitochondrial light strand promotor sequence (1-477) cloned between HindIII and BamHI sites. The DNA template is restriction linearized proximal to the promotor 3′-end (pUC-LSP).
The reaction mixture (10 uL) containing 7.5 nM POLRMT, 15 nM of TFB2M, 30 nM of TFAM, 0.5 nM of DNA template and 500 μM nucleotide triphosphate mix (NTPs) in a reaction buffer (containing 10 mM Tris-HCl (pH 7.5), 10 mM MgCl2, 40 mM NaCl, 10 mM DTT, 0.005% (w/v) Tween-20, 160 units/ml Rnase inhibitor and 0.1 mg/mL BSA) are dispensed to compounds in microplates, using a Thermo Multidrop® dispenser, and incubated at 37° C. in a VWR INCU-Line incubator for 60 minutes after mixing. No nucleotide triphosphate mix is added to negative control samples. Microplates with compounds to be tested in the assay are prepared from 10 mM compound stocks in 100% DMSO, equal amounts of DMSO without any compound are added to positive control and negative control samples.
During the incubation, a mix of the detection reagents is prepared in a buffer such that the enzymatic reaction is terminated due to chelating of Mg-ions and increased ionic strength, containing 50 mM Tris-HCl (pH 7.5), 700 mM NaCl, 20 mM EDTA, and 0.010% (w/v) Tween-20. Europium-streptavidin is pre-incubated with a 200-fold molar excess of a random sequence oligonucleotide to block unspecific binding of oligo, for two hours at ambient temperature in the dark. Afterwards, the blocked Europium-streptavidin is kept on ice until use.
At the end of the enzymatic reaction time, 5 μL detection oligo mix in the detection buffer is added, and assay plates are mixed and kept at ambient temperature for one hour, protected from light. The concentration of the Acceptor nucleotide oligo (e.g., ATTO647N-5′-[…]-3′) and Donor nucleotide oligo (e.g., bio-5′-AACACATCTCT(-bio)GCCAAACCCCA-bio-3′) in each assay well is 1 nM, and 3 nM, respectively.
After incubation with oligo mix, 5 μL of pre-blocked Europium-streptavidin reagent is dispensed to each assay well, assay plates are again mixed and kept at ambient temperature for one hour, protected from light.
The generated signal is measured with BMG Pherastar microtiter plate reader with a TRF light unit, using excitation at 340 nm, an integration time of 200 μs, and a delay time of 100 μs, before detection at 620 nm and 665 nm. The ratio of donor- and acceptor-fluorescence is used as a measure of the generated transcript product (i.e. enzymatic activity).

POLRMT, sequence (O00411 42-1230): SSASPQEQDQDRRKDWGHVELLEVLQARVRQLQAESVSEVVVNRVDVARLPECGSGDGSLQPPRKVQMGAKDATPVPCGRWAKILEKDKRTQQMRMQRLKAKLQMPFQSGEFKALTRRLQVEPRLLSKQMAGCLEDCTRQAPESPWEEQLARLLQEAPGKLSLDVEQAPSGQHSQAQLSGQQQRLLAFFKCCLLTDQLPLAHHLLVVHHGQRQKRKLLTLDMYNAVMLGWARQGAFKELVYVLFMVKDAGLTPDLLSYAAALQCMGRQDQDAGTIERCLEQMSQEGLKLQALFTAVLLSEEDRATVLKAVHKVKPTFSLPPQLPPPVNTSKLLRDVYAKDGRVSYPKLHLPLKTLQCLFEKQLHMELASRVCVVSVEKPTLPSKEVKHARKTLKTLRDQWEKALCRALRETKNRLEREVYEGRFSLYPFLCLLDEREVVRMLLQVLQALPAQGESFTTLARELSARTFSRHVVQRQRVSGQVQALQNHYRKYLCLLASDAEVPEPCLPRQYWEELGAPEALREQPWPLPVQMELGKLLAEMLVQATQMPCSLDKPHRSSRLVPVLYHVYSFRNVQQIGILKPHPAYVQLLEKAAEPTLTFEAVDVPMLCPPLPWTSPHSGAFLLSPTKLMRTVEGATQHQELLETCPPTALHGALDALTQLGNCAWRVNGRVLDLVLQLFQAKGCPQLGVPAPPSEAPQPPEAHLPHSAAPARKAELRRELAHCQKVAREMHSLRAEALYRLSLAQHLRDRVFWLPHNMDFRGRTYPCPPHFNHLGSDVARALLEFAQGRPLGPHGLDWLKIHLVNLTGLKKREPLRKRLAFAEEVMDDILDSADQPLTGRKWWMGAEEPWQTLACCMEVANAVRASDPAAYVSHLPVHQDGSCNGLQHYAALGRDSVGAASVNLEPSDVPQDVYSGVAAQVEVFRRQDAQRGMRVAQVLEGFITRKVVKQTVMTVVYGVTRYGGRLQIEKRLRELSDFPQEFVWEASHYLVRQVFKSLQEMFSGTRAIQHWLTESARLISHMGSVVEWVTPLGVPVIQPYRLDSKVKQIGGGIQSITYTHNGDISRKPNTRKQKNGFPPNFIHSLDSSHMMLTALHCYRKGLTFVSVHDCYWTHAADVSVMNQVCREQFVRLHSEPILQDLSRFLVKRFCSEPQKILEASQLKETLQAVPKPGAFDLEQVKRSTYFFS

Q: `Cc1ccccc1-c1c[nH]c(=O)c2cc(O[C@H](C)C(=O)N3C4CCC3COC4)ccc12` [Example 85, 7-(((2R)-1-(3-oxa-8-azabicyclo[3.2.1]octan-8-yl)-1-oxopropan-2-yl)oxy)-4-(o-tolyl)isoquinolin-1(2H)-one] was tested. Which IC50 did it give?
A: The IC50 was 20 nM.

Q: Which IC50 does the source give for `CCc1ccccc1-c1c[nH]c(=O)c2cc(OCC(N)=O)ccc12` [Example 138, 2-((4-(2-ethylphenyl)-1-oxo-1,2-dihydroisoquinolin-7-yl)oxy)acetamide] here?
A: Its IC50 is 12000 nM.

Q: With `C[C@@H](Oc1ccc2c(-c3ccc(F)cc3Cl)c[nH]c(=O)c2c1)C(=O)N1CCOCC1` [Example 79, (R)-4-(2-chloro-4-fluorophenyl)-7-((1-morpholino-1-oxopropan-2-yl)oxy)isoquinolin-1(2H)-one] as the molecule, how does the IC50 read?
A: The IC50 was 50 nM.

Q: Which IC50 does the source give for `Cc1cc(F)cc(C)c1-c1c[nH]c(=O)c2cc(OCC(=O)O)ccc12` [Example 110, 2-((4-(4-fluoro-2,6-dimethylphenyl)-1-oxo-1,2-dihydroisoquinolin-7-yl)oxy)acetic acid] here?
A: Its IC50 is 25000 nM.

Q: Which IC50 does the source give for `Cc1cccc(C)c1-c1c[nH]c(=O)c2cc(OCC#N)ccc12` [Example 99, 2-((4-(2,6-dimethylphenyl)-1-oxo-1,2-dihydroisoquinolin-7-yl)oxy)acetonitrile] here?
A: The IC50 was 20 nM.

Q: For `COCc1ccc2c(-c3ccccc3C)c[nH]c(=O)c2c1` [Example 44, 7-(methoxymethyl)-4-(o-tolyl)isoquinolin-1(2H)-one], which IC50 is on record?
A: Its IC50 is 2000 nM.

Q: Which IC50 does the source give for `Cc1ccc(-c2c[nH]c(=O)c3cc(OCC#N)ccc23)c(Cl)c1` [Example 89, 2-((4-(2-chloro-4-methylphenyl)-1-oxo-1,2-dihydroisoquinolin-7-yl)oxy)acetonitrile] here?
A: Its IC50 is 300 nM.

Q: `COCC(Oc1ccc2c(-c3ccccc3C)c[nH]c(=O)c2c1)C(=O)N(C)C` (single isomer, unassigned) [Example 54] was tested. Which IC50 did it give?
A: Its IC50 is over 100000 nM.

Q: With `C[C@H]1CN(C(=O)[C@@H](C)Oc2ccc3c(-c4ccc(F)cc4Cl)c[nH]c(=O)c3c2)C[C@H](C)O1` (single isomer, unassigned) [Example 125] as the molecule, how does the IC50 read?
A: Its IC50 is 200 nM.

Q: Which IC50 does the source give for `Cc1ccccc1-c1c[nH]c(=O)c2cc(OC(C)C#N)ccc12` (single isomer, unassigned) [Example 13, 2-((1-oxo-4-(o-tolyl)-1,2-dihydroisoquinolin-7-yl)oxy)propanenitrile] here?
A: The IC50 was 900 nM.

Q: Which IC50 does the source give for `C[C@@H](Oc1ccc2c(-c3ccc(F)cc3Cl)c[nH]c(=O)c2c1)C(=O)N1CCOC[C@H]1C(=O)O` [Example 112, (S)-4-((R)-2-((4-(2-chloro-4-fluorophenyl)-1-oxo-1,2-dihydroisoquinolin-7-yl)oxy)propanoyl)morpholine-3-carboxylic acid] here?
A: Its IC50 is 4000 nM.

Q: `CC(=O)N1CC[C@@H](Oc2ccc3c(-c4ccccc4C)c[nH]c(=O)c3c2)C1` [Example 16, (R)-7-((1-acetylpyrrolidin-3-yl)oxy)-4-(o-tolyl)isoquinolin-1(2H)-one] was tested. Which IC50 did it give?
A: The IC50 was 51000 nM.

Q: For `C[C@@H](Oc1ccc2c(-c3ccc(F)cc3Cl)c[nH]c(=O)c2c1)C(=O)N1C2CCCC1CC2` [Example 93, 7-(((2R)-1-(8-azabicyclo[3.2.1]octan-8-yl)-1-oxopropan-2-yl)oxy)-4-(2-chloro-4-fluorophenyl)isoquinolin-1(2H)-one], which IC50 is on record?
A: The IC50 was 30 nM.

Q: With `Cc1ccccc1-c1c[nH]c(=O)c2cc(-c3ccccc3)ccc12` [Example 48, 7-phenyl-4-(o-tolyl)isoquinolin-1(2H)-one] as the molecule, how does the IC50 read?
A: Its IC50 is 200 nM.

Q: `Cc1ccccc1-c1c[nH]c(=O)c2cc(OC(C)(C)C(=O)O)ccc12` [Example 119, 2-methyl-2-((1-oxo-4-(o-tolyl)-1,2-dihydroisoquinolin-7-yl)oxy)propanoic acid] was tested. Which IC50 did it give?
A: Its IC50 is 700 nM.

Q: Which IC50 does the source give for `Cc1ccccc1-c1c[nH]c(=O)c2cc(OCC(C)C)ccc12` [Example 6, 7-isobutoxy-4-(o-tolyl)isoquinolin-1(2H)-one] here?
A: Its IC50 is 200 nM.

Q: With `C[C@@H](Oc1ccc2c(-c3ccc(F)cc3Cl)c[nH]c(=O)c2c1)C(=O)N1CCOC[C@H]1CO` [Example 113, 4-(2-chloro-4-fluorophenyl)-7-(((R)-1-((R)-3-(hydroxymethyl)morpholino)-1-oxopropan-2-yl)oxy)isoquinolin-1(2H)-one] as the molecule, how does the IC50 read?
A: Its IC50 is 600 nM.

Q: For `CC(C)Oc1ccc2c(-c3ccc(F)cc3Cl)c[nH]c(=O)c2c1` [Example 7, 4-(2-chloro-4-fluorophenyl)-7-isopropoxyisoquinolin-1(2H)-one], which IC50 is on record?
A: Its IC50 is 800 nM.

Q: How did the IC50 turn out when `COC[C@@H]1COCCN1C(=O)[C@@H](C)Oc1ccc2c(-c3ccc(F)cc3Cl)c[nH]c(=O)c2c1` [Example 102, 4-(2-chloro-4-fluorophenyl)-7-(((R)-1-((R)-3-(methoxymethyl)morpholino)-1-oxopropan-2-yl)oxy)isoquinolin-1(2H)-one] was run?
A: Its IC50 is 700 nM.

Q: `Cc1ccccc1-c1c[nH]c(=O)c2cc(OCC#N)ccc12` [Example 36, 2-((1-oxo-4-(o-tolyl)-1,2-dihydroisoquinolin-7-yl)oxy)acetonitrile] was tested. Which IC50 did it give?
A: The IC50 was 200 nM.

Q: Which IC50 does the source give for `Cc1ccccc1-c1c[nH]c(=O)c2cc(O[C@H](C)C(=O)N3CCC[C@H](C(=O)O)C3)ccc12` [Example 22, (S)-1-((R)-2-((1-oxo-4-(o-tolyl)-1,2-dihydroisoquinolin-7-yl)oxy)propanoyl)piperidine-3-carboxylic acid] here?
A: Its IC50 is 40 nM.

Q: Which IC50 does the source give for `CNC(=O)[C@H](C)Oc1ccc2c(-c3ccccc3C)c[nH]c(=O)c2c1` [Example 28, (S)—N-methyl-2-((1-oxo-4-(o-tolyl)-1,2-dihydroisoquinolin-7-yl)oxy)propenamide] here?
A: The IC50 was 36000 nM.

Q: `CC(=O)N1CCC(C(=O)Nc2ccc3c(-c4ccccc4C)c[nH]c(=O)c3c2)CC1` [Example 33, 1-acetyl-N-(1-oxo-4-(o-tolyl)-1,2-dihydroisoquinolin-7-yl)piperidine-4-carboxamide] was tested. Which IC50 did it give?
A: Its IC50 is over 100000 nM.

Q: `COCC(Oc1ccc2c(-c3ccccc3C)c[nH]c(=O)c2c1)C(N)=O` (single isomer, unassigned) [Example 52] was tested. Which IC50 did it give?
A: The IC50 was over 100000 nM.

Q: For `CC(=O)N1CCN(C(=O)[C@@H](C)Oc2ccc3c(-c4ccc(F)cc4Cl)c[nH]c(=O)c3c2)CC1` [Example 116, (R)-7-((1-(4-acetylpiperazin-1-yl)-1-oxopropan-2-yl)oxy)-4-(2-chloro-4-fluorophenyl)isoquinolin-1(2H)-one], which IC50 is on record?
A: The IC50 was 500 nM.

Q: With `CCOC(=O)C(C)Cc1ccc2c(-c3ccccc3C)c[nH]c(=O)c2c1` (stereo not shown) [Example 40, ethyl 2-methyl-3-(1-oxo-4-(o-tolyl)-1,2-dihydroisoquinolin-7-yl)propanoate] as the molecule, how does the IC50 read?
A: Its IC50 is 1000 nM.

Q: Which IC50 does the source give for `Cc1ccccc1-c1c[nH]c(=O)c2cc(OCCN(C)C)ccc12` [Example 10, 7-(2-(dimethylamino)ethoxy)-4-(o-tolyl)isoquinolin-1(2H)-one] here?
A: Its IC50 is over 100000 nM.

Q: With `C[C@@H](Oc1ccc2c(-c3ccc(F)cc3Cl)c[nH]c(=O)c2c1)C(=O)N1CCN(C)CC1` [Example 131, (R)-4-(2-chloro-4-fluorophenyl)-7-((1-(4-methylpiperazin-1-yl)-1-oxopropan-2-yl)oxy)isoquinolin-1(2H)-one] as the molecule, how does the IC50 read?
A: Its IC50 is 1000 nM.

Same assay, conditions: quinolinone compounds (Table 2)

Q: How did the IC50 turn out when `CCC(C)Oc1ccc2c(-c3ccccc3C)cc(=O)[nH]c2c1` (stereo not shown) [Example Q11, 7-(sec-butoxy)-4-(o-tolyl)quinolin-2(1H)-one] was run?
A: The IC50 was 3000 nM.

Q: With `COc1ccc2c(-c3ccc(F)cc3Cl)cc(=O)[nH]c2c1` [Example Q1, 4-(2-chloro-4-fluorophenyl)-7-methoxyquinolin-2(1H)-one] as the molecule, how does the IC50 read?
A: The IC50 was over 100000 nM.

Q: For `Cc1ccccc1-c1cc(=O)[nH]c2cc(O[C@@H](C)C(=O)N(C)C)ccc12` (single isomer, unassigned) [Example Q8], which IC50 is on record?
A: Its IC50 is over 100000 nM.
